Results: patent publication US20170008888A1 (KYORIN PHARMACEUTICAL CO., LTD., priority 2014, published 2017)
Read-outs that look alike come from different tables or passages of the source.

Legend:
Format in all cases: binding
AMPKa1 or AMPKa2 = test: Probe-based (AX9989) kinase profiling in Jurkat lysate: AMPKa1 or AMPKa2
Procedure, shortened: (§1)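 Percent inhibition was derived from reduced LC/MS fragment intensities of probe-labeled peptides relative to compound-free controls. Before labeling with 5 μM AX9989, Mn2+-supplemented (20 mM) Jurkat lysate was exposed to compound for 15 min at room temperature.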

TAO2 = target: T1, TAO2 (Homo sapiens, UniProt Q9UL54); test: Probe-based (AX9989) kinase profiling in Jurkat lysate: TAO2; conditions: for inhibition at 0.1 µM: screening concentration 0.1 μM; for inhibition at 10 µM: screening concentration 10 μM
T1 construct: screened for activity against several kinases in Jurkat cells; endogenous in cells; host or cells: Jurkat cell lysate
T1 sequence (Q9UL54 1-1235): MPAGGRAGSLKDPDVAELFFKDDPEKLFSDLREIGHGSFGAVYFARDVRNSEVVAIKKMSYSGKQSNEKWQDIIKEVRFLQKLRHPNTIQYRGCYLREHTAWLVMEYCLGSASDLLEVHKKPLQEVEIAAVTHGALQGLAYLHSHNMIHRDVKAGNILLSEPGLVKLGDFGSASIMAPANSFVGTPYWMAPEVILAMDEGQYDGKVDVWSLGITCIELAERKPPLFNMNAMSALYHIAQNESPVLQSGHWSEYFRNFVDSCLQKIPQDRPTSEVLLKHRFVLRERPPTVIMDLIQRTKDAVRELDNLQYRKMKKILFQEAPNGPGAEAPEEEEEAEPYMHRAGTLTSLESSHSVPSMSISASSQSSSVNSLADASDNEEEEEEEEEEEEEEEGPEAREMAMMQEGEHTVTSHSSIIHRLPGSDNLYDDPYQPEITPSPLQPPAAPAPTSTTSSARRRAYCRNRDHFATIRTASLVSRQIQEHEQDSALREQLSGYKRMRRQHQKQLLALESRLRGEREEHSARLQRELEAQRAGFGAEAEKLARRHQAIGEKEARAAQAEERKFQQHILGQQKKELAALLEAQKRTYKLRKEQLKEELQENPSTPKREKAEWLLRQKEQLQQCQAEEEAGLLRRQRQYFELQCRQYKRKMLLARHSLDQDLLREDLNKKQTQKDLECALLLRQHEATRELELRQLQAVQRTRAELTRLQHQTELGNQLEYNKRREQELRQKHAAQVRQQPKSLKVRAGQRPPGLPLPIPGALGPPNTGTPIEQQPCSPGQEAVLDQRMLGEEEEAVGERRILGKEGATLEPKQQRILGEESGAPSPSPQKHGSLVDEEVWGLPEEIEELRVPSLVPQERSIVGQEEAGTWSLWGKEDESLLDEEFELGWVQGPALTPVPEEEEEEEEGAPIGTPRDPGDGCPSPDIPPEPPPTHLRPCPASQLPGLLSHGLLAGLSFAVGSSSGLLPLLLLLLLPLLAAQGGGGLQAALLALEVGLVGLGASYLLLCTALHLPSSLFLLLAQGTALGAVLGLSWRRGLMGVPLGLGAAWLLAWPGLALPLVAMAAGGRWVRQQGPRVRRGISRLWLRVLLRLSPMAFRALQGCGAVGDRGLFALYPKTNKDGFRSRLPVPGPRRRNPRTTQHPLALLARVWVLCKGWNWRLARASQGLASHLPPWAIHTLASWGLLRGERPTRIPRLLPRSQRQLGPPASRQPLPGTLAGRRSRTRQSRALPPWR
Procedure, shortened: as §1

[1] = target: T2, BRD4 bromodomain domain I [BRD4(1)] (Homo sapiens, UniProt O60885); test: BRD4 bromodomain domain 1 inhibition assay (TR-FRET); conditions: screening concentration 10 μM
T2 construct: BRD4 bromodomain domain I [BRD4(1)]; purchased Cayman Chemicals
Procedure, shortened: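 0.5% DMSO, in triplicate, using Cayman BRD4(1) TR-FRET protocol with slight modification. 670/620 nm ratio normalized to 10 μM JQ1, with DMSO control set as 0% inhibition.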

[2] = screening concentration 1.0 μM, read-out: Kinase inhibition % at indicated screening concentration: TAO2
[3] = read-out: Kinase inhibition % at indicated screening concentration: TAO2
[4] = read-out: TAO2 Inhibition % at indicated screening concentration

| SMILES | Kinase inhibition % at indicated screening concentration: AMPKa1 or AMPKa2 (AMPKa1 or AMPKa2; screening concentration 1.0 μM) | inhibition at 1 µM (TAO2; [2]) | inhibition at 10 µM [1] | other results |
| --- | --- | --- | --- | --- |
| CN1C(=O)c2ccccc2N(C)c2cc(NC3CCC(C(=O)NC4CCOCC4)CC3)ncc21 (stereo not drawn) [Compound 64] | E (E is ≦35%) | ≤ 35% | < 70% |  |
| CCOc1cc(C(=O)N2CCC(N3CCN(C)CC3)CC2)ccc1Nc1cc2c(cn1)N(C)C(=O)c1occc1N2C [Compound 65] |  |  | > 85% | Kinase inhibition % at indicated screening concentration: AMPKa1 or AMPKa2 (AMPKa1 or AMPKa2; screening concentration 0.1 μM): E (E is ≦35%); inhibition at 0.1 µM (TAO2; [3]): ≤ 35% |
| CCOc1cc(C(=O)NCCO)ccc1Nc1cc2c(cn1)N(C)C(=O)c1ccccc1N2C [Compound 66] | E (E is ≦35%) | ≤ 35% | < 70% |  |
| CCOc1cc(C(=O)N2CC[C@@H](N(CC)CC)C2)ccc1Nc1cc2c(cn1)N(C)C(=O)c1occc1N2C [Compound 67] |  |  | > 85% | Kinase inhibition % at indicated screening concentration: AMPKa1 or AMPKa2 (AMPKa1 or AMPKa2; screening concentration 0.1 μM): E (E is ≦35%); inhibition at 0.1 µM (TAO2; [3]): ≤ 35% |
| CCOc1cc(C(=O)N[C@@H]2CCCOC2)ccc1Nc1cc2c(cn1)N(C)C(=O)c1ccccc1N2C [Compound 69] | E (E is ≦35%) | ≤ 35% | < 70% |  |
| COc1cc(C(=O)N2CCC(N(C)C)C2)ccc1Nc1cc2c(cn1)N(C)C(=O)c1ccccc1N2C (stereo not drawn) [Compound 70] |  |  | 70 to 85% | Kinase inhibition % at indicated screening concentration: AMPKa1 or AMPKa2 (AMPKa1 or AMPKa2; screening concentration 0.1 μM): E (E is ≦35%); inhibition at 0.1 µM (TAO2; [3]): ≤ 35% |
| CCOc1cc(C(=O)N2CCCNCC2)ccc1Nc1cc2c(cn1)N(C)C(=O)c1ccccc1N2C [Compound 71] | E (E is ≦35%) | ≤ 35% | > 85% |  |
| CCOc1cc(C(=O)N2CCC(F)C2)ccc1Nc1cc2c(cn1)N(C)C(=O)c1occc1N2C (stereo not drawn) [Compound 72] |  |  | 70 to 85% | Kinase inhibition % at indicated screening concentration: AMPKa1 or AMPKa2 (AMPKa1 or AMPKa2; screening concentration 0.1 μM): E (E is ≦35%); inhibition at 0.1 µM (TAO2; [3]): ≤ 35% |
| COc1cc(NS(C)(=O)=O)ccc1Nc1cc2c(cn1)N(C)C(=O)c1ccccc1N2C [Compound 73] | E (E is ≦35%) | ≤ 35% | < 70% |  |
| CN1C(=O)c2ccccc2N(C)c2cc(N[C@H]3CC[C@H](N4CCCC4)CC3)ncc21 [Compound 74] | E (E is ≦35%) | ≤ 35% | < 70% |  |
| CCOc1cc(C(=O)N2CC[C@H](N(C)C)C2)ccc1Nc1cc2c(cn1)N(C)C(=O)c1ccccc1N2C [Compound 75] | E (E is ≦35%) | ≤ 35% | > 85% |  |
| CCOc1cc(C(=O)NC2CCOCC2)ccc1Nc1cc2c(cn1)N(C)C(=O)c1ccccc1N2C [Compound 80] | E (E is ≦35%) | ≤ 35% | < 70% |  |
| CCOc1cc(C(=O)N2CCC(N3CCN(C)CC3)CC2)ccc1Nc1cc2c(cn1)N(C)C(C(F)(F)F)c1ccccc1N2C (stereo not drawn) [Compound T47] |  |  |  | AMPKa1 or AMPKa2 Inhibition % at indicated screening concentration (AMPKa1 or AMPKa2; screening concentration 10 μM): E (E is ≦35%); inhibition at 10 µM (TAO2; [4]): ≤ 35% |
| CCOc1cc(C(=O)N2CCC(NCCF)C2)ccc1Nc1cc2c(cn1)N(C)C(C(F)(F)F)c1ccccc1N2C (stereo not drawn) [Compound T54] |  |  |  | AMPKa1 or AMPKa2 Inhibition % at indicated screening concentration (AMPKa1 or AMPKa2; screening concentration 10 μM): E (E is ≦35%); inhibition at 10 µM (TAO2; [4]): ≤ 35% |
| CCOc1cc(C(=O)N[C@H]2CC[C@@H](O)CC2)ccc1Nc1cc2c(cn1)N(C)C(=O)c1ccccc1N2C [Compound T63] |  |  |  | AMPKa1 or AMPKa2 Inhibition % at indicated screening concentration (AMPKa1 or AMPKa2; screening concentration 1 μM): E (E is ≦35%); inhibition at 1 µM (TAO2; screening concentration 1 μM, read-out: TAO2 Inhibition % at indicated screening concentration): ≤ 35% |
